Data taken from ChEMBL document CHEMBL3390847, “Boronic acids in medicinal chemistry: anticancer, antibacterial and antiviral applications” (Medchemcomm, 2010).
Values after ≈ are worked out from the molar mass of the structure shown.

Columns and labels:
[1] = Inhibition of tubulin polymerization in rat A10 cells assessed as microtubule loss; assay type: cell-based
Tubulin [2] = assay: Inhibition of tubulin polymerization (unknown origin); assay type: protein-complex assay, Homo sapiens
MCF7 = assay: Cytotoxicity against human MCF7 cells; assay type: functional, cell-based
B16 = assay: Cytotoxicity against mouse B16 cells; assay type: functional, cell-based
[3] = Cytotoxicity against human 1-87 cells; assay type: functional, cell-based
Tubulin [4] = assay: Inhibition of tubulin polymerization (unknown origin) after 30 mins; assay type: protein-complex assay, Homo sapiens
[5] = Inhibition of post-glutamyl peptide hydrolysis proteasome subunit (unknown origin); parameters: species or system Homo sapiens
[6] = biological target: T1, Proteasome subunit beta type-7 (Homo sapiens, UniProt Q99436); assay: Inhibition of trypsin-like activity of proteasome beta7 subunit (unknown origin)
T1 sequence (Q99436 whole entry): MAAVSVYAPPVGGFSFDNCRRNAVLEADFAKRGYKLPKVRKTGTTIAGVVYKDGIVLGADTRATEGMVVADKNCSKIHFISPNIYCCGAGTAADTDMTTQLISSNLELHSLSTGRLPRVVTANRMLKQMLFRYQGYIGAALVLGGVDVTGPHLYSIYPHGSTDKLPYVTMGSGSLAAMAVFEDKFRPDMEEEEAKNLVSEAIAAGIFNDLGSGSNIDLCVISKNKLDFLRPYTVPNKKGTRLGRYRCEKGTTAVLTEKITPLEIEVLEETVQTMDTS

[7] = biological target: T2, Proteasome Macropain subunit MB1 (Homo sapiens, UniProt P28074); assay: Inhibition of chymotrypsin-like activity of proteasome beta5 subunit (unknown origin)
T2 sequence (P28074 whole entry): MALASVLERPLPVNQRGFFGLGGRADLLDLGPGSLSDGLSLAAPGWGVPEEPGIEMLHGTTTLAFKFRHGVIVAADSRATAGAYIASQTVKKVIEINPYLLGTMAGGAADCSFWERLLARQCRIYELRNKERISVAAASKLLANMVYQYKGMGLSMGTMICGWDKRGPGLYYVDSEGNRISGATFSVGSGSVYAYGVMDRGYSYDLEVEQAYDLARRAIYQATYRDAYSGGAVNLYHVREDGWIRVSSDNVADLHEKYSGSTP

[8] = Inhibition of YFV recombinant NS3 protease expressed in Escherichia coli using Bz-nKRR-AMC as substrate after 30 mins; parameters: species or system Yellow fever virus
Moraxella catarrhalis = assay: Antimicrobial activity against Moraxella catarrhalis after 18 hrs by broth macrodilution assay; assay type: functional
[9] = system: Staphylococcus epidermidis; assay: Antimicrobial activity against Staphylococcus epidermidis ATCC 12228 after 18 hrs by broth macrodilution assay; assay type: functional; details: ATCC 12228, 18 h
Staphylococcus aureus = assay: Antimicrobial activity against Staphylococcus aureus […] after 18 hrs by broth macrodilution assay; assay type: functional
Bacillus subtilis = assay: Antimicrobial activity against Bacillus subtilis ATCC 23857 after 18 hrs by broth macrodilution assay; assay type: functional; details: ATCC 23857, 18 h
[10] = biological target: T3, Epidermal growth factor receptor (Homo sapiens, UniProt P00533); assay: Inhibition of EGFR kinase (unknown origin) using poly(Glu:Tyr) as substrate
A-431 = assay: Cytotoxicity against human A431 cells; assay type: functional
[11] = biological target: T3, Epidermal growth factor receptor; assay: Inhibition of EGFR kinase (unknown origin) using poly(Glu:Tyr) as substrate at 1 uM
[12] = Inhibition of AmpC beta-lactamase (unknown origin)
[13] = Inhibition of TEM-30 (unknown origin)
[14] = Inhibition of AmpC beta-lactamase N289A mutant (unknown origin)
[15] = Inhibition of TEM-1 (unknown origin)
[16] = Inhibition of alpha-chymotrypsin (unknown origin); parameters: species or system Homo sapiens
Bacillus anthracis = assay: Antimicrobial activity against Bacillus anthracis; assay type: functional
Tubulin (Homo sapiens) = Tubulin (Homo sapiens) (UniProt P68371+Q9H4B7+P0DPH7+P68366+Q13509+Q71U36+P04350+Q3ZCM7+P07437+P68363+Q9BQE3+Q6PEY2+Q13885+Q9BVA1+Q9BUF5); assay: Displacement of [3H]colchicine from tubulin (unknown origin) at 5 uM; assay type: protein-complex assay
[17] = Inhibition of beta-lactamase SHV2 D104K mutant (unknown origin) expressed in Escherichia coli DH10B using nitrocefin as substrate
[18] = Inhibition of beta-lactamase SHV2 G238S mutant (unknown origin) expressed in Escherichia coli DH10B using nitrocefin as substrate

T3 sequence (P00533 whole entry): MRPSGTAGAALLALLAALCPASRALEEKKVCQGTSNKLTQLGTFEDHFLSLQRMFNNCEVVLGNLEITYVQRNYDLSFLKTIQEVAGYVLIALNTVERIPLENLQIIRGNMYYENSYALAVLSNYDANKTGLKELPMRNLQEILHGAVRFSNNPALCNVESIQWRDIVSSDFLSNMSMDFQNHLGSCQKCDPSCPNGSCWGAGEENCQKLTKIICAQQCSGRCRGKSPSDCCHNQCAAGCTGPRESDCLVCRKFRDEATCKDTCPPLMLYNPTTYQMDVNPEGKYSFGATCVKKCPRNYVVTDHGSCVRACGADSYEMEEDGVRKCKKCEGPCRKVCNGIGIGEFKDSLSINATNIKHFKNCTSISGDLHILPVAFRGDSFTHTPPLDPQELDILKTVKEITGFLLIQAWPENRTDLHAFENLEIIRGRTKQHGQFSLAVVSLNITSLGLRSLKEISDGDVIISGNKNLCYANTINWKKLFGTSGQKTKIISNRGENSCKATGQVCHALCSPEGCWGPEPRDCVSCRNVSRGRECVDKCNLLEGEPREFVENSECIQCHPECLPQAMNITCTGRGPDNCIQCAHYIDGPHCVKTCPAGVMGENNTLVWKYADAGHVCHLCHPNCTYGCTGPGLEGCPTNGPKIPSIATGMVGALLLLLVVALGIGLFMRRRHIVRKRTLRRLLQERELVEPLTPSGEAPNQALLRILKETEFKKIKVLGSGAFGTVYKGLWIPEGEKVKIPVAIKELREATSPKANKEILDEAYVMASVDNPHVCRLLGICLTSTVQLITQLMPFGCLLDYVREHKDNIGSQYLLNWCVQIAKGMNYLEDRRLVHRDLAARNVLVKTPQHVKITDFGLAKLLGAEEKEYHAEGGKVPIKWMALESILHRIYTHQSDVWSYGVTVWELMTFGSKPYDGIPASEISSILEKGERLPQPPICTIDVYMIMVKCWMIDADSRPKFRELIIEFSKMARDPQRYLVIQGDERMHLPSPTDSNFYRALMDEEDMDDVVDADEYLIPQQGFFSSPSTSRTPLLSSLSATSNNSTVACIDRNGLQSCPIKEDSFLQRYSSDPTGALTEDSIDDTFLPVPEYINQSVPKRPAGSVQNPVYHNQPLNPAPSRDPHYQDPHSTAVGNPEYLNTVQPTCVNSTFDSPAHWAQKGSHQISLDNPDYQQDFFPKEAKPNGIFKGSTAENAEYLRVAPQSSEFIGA

## COc1cc(C(=O)/C=C/c2cc(OC)c(OC)c(OC)c2)ccc1O
[1]
  EC50: 18 µM
Tubulin [2]
  IC50: > 40 µM
MCF7
  IC50: > 2.5 µM

## COc1cc(/C=C\c2cccc(B(O)O)c2)cc(OC)c1
B16
  IC50: 1.8 µM
[3]
  IC50: 2 µM
Tubulin [4]
  IC50: > 100 µM

## CC(C)C[C@H](NC(=O)[C@H](Cc1ccccc1)NC(=O)[C@H](Cc1ccccc1)NC(=O)c1cnccn1)B(O)O
[5]
  IC50: 0.0109 µM
[6]
  IC50: > 0.02 µM
[7]
  IC50: 0.55 nM

## CCCC[C@H](NC(=O)c1ccccc1)C(=O)N[C@@H](CCCCN)C(=O)N[C@@H](CCCCN)C(=O)N[C@@H](CCCNC(=N)N)B(O)O
[8]
  Ki: 0.05 µM

## C=CB(Oc1cccc2cccnc12)c1cccc(Cl)c1
Moraxella catarrhalis
  MIC: 4 µg/mL (≈ 13.6 µM)
[9]
  MIC: 1 µg/mL (≈ 3.41 µM)
Staphylococcus aureus
  MIC: 2 µg/mL (≈ 6.81 µM)
Bacillus subtilis
  MIC: 4 µg/mL (≈ 13.6 µM)

## Clc1cccc(B(Oc2cccc3cccnc23)c2cccc(Cl)c2)c1
Moraxella catarrhalis
  MIC: 2 µg/mL (≈ 5.29 µM)
[9]
  MIC: 2 µg/mL (≈ 5.29 µM)
Staphylococcus aureus
  MIC: 1 µg/mL (≈ 2.65 µM)
Bacillus subtilis
  MIC: 2 µg/mL (≈ 5.29 µM)

## OB(O)c1ccc(COc2ccc3ncnc(Nc4cccc(Cl)c4)c3c2)cc1
[10]
  IC50: 0.85 µM
A-431
  GI50: 1.82 µM
[11]
  inhibition: 55%

## OB(O)/C=C/COc1ccc2ncnc(Nc3cccc(Cl)c3)c2c1
[10]
  IC50: 0.27 µM
A-431
  GI50: 0.68 µM
[11]
  inhibition: 63%

## COc1cc(/C=C\c2ccc(OC)c(B(O)O)c2)cc(OC)c1
B16
  IC50: 0.019 µM
[3]
  IC50: 0.028 µM
Tubulin [4]
  IC50: 21 µM

## COc1cc(/C=C/C(=O)c2cc(OC)c(OC)c(OC)c2)ccc1O
[1]
  EC50: 0.98 µM
Tubulin [2]
  IC50: 2.6 µM
MCF7
  IC50: 0.11 µM

## CC(=O)OCC1=C(C(=O)O)N2C(=O)[C@@H](NC(=O)Cc3cccs3)[C@H]2SC1 [CEPHALOTHIN]
[12]
  Ki: 0.32 µM

## O=C(O)/C=C/c1cccc([C@H](NC(=O)Cc2cccs2)B(O)O)c1
[13]
  Ki: 3.8 µM
[14]
  Ki: 0.0028 µM
[15]
  Ki: 0.106 µM

## O=C(Cc1cccs1)N[C@H](B(O)O)c1cccc(C(=O)O)c1
[12]
  Ki: 0.001 µM
[13]
  Ki: 7.8 µM
[14]
  Ki: 0.017 µM
[15]
  Ki: 0.064 µM

## Clc1ccc(C(Oc2cccc3cccnc23)c2ccc(Cl)cc2)cc1
[9]
  MIC: > 64 µg/mL
Staphylococcus aureus
  MIC: > 64 µg/mL
Bacillus subtilis
  MIC: > 64 µg/mL

## CC(C)C[C@H](NC(=O)[C@H](Cc1ccc2ccccc2c1)NC(=O)[C@H](CC(C)C)NC(=O)c1cnccn1)B(O)O
[5]
  IC50: 0.00363 µM
[6]
  IC50: > 0.02 µM
[7]
  IC50: 0.08 nM

## COc1ccc(/C=C/c2cc(OC)c(OC)c(OC)c2)cc1B(O)O
[1]
  EC50: > 15 µM
Tubulin [2]
  IC50: 7.8 µM
MCF7
  IC50: 0.47 µM

## COc1ccc(/C=C\c2cc(OC)c(OC)c(OC)c2)cc1C(=O)O
B16
  IC50: 160 µM
[3]
  IC50: 110 µM
Tubulin [4]
  IC50: > 100 µM

## OB(O)c1ccccc1 [PHENYLBORONIC ACID]
[16]
  Ki: 196 µM

## CC[C@H]1OC(=O)[C@H](C)[C@@H](O[C@H]2C[C@@](C)(OC)[C@@H](O)[C@H](C)O2)[C@H](C)[C@@H](O[C@@H]2O[C@H](C)C[C@H](N(C)C)[C@H]2O)[C@](C)(O)C[C@@H](C)C(=O)[C@H](C)[C@@H](O)[C@]1(C)O [ERYTHROMYCIN]
Bacillus anthracis
  MIC90: 1.5 µg/mL (≈ 2.04 µM)

## COc1ccc(/C=C\c2cc(OC)c(OC)c(OC)c2)cc1B(O)O
[1]
  EC50: 0.058 µM
B16
  IC50: 0.0063 µM
Tubulin (Homo sapiens)
  inhibition: 79%
[3]
  IC50: 0.013 µM
Tubulin [2]
  IC50: 1.5 µM
MCF7
  IC50: 0.017 µM
Tubulin [4]
  IC50: 22 µM

## CC1(C)[C@H]2CC3OB(COc4ccc5ncnc(Nc6cccc(Cl)c6)c5c4)O[C@@]3(C)[C@@H]1C2 (some centres not stated)
[10]
  IC50: 0.2 µM
A-431
  GI50: 0.54 µM
[11]
  inhibition: 65%

## CO/N=C(/C(=O)NCB(O)O)c1csc(N)n1
[17]
  Ki: 0.7 µM
[18]
  Ki: 6.8 µM

## COc1ccc(/C=C\c2cc(OC)c(OC)c(OC)c2)cc1O [COMBRETASTATIN A4]
[1]
  EC50: < 0.025 µM
B16
  IC50: 0.0046 µM
[3]
  IC50: 0.0085 µM
MCF7
  IC50: 0.032 µM

## C=CB(Oc1cccc2cccnc12)c1ccccc1
Moraxella catarrhalis
  MIC: 2 µg/mL (≈ 7.72 µM)
[9]
  MIC: 1 µg/mL (≈ 3.86 µM)
Staphylococcus aureus
  MIC: 2 µg/mL (≈ 7.72 µM)

## O=C(Cc1cccs1)N[C@H](B(O)O)c1ccccc1
[12]
  Ki: 0.035 µM

## CC(C)C[C@H](NC(=O)[C@H](Cc1ccc(O)cc1)NC(=O)[C@H](Cc1ccccc1)NC(=O)c1cnccn1)B(O)O
[5]
  IC50: 0.00401 µM
[6]
  IC50: > 0.02 µM
[7]
  IC50: 0.39 nM

## COc1cc(/C=C\c2ccc(B(O)O)cc2)cc(OC)c1
B16
  IC50: 12 µM
[3]
  IC50: 9.1 µM
Tubulin [4]
  IC50: 79 µM

## OCc1ccccc1 [BENZYL ALCOHOL]
[16]
  Ki: 10000 µM

## Cc1ccc2cccc(OB(c3ccc(Cl)cc3)c3ccc(Cl)cc3)c2n1
[9]
  MIC: 8 µg/mL (≈ 20.4 µM)
Staphylococcus aureus
  MIC: 16 µg/mL (≈ 40.8 µM)

## COc1cc(/C=C\c2cccc(B(O)O)c2)cc(OC)c1OC
B16
  IC50: 0.49 µM
[3]
  IC50: 2.1 µM
Tubulin [4]
  IC50: > 100 µM

## CC(C)C[C@H](NC(=O)[C@H](Cc1ccccc1)NC(=O)[C@H](Cc1ccc2ccccc2c1)NC(=O)c1cnccn1)B(O)O
[5]
  IC50: 0.00443 µM
[6]
  IC50: > 0.02 µM
[7]
  IC50: 0.42 nM

## CC(C)C[C@H](NC(=O)[C@H](Cc1ccccc1)NC(=O)[C@H](Cc1ccccc1)NC(=O)c1cnccn1)B1O[C@@H]2[C@H]3CC[C@H](C3(C)C)[C@]2(C)O1
[5]
  IC50: 0.00833 µM
[6]
  IC50: > 0.02 µM
[7]
  IC50: 0.4 nM

## CC(C)C[C@H](NC(=O)[C@H](Cc1ccccc1)NC(=O)[C@H](Cc1ccc2ccccc2c1)NC(=O)c1cnccn1)B1O[C@@H]2[C@H]3CC[C@H](C3(C)C)[C@]2(C)O1
[5]
  IC50: > 0.02 µM
[6]
  IC50: > 0.02 µM
[7]
  IC50: 0.22 nM

## COc1cc(/C=C/C(=O)c2cc(OC)c(OC)c(OC)c2)ccc1B(O)O
[1]
  EC50: 16.5 µM
Tubulin [2]
  IC50: 31 µM
MCF7
  IC50: 0.9 µM

## Clc1cccc(B(Oc2ccc(Cl)c3cccnc23)c2cccc(Cl)c2)c1
Moraxella catarrhalis
  MIC: ≤ 0.125 µg/mL
[9]
  MIC: 0.25 µg/mL (≈ 0.606 µM)
Staphylococcus aureus
  MIC: 0.5 µg/mL (≈ 1.21 µM)
Bacillus subtilis
  MIC: 32 µg/mL (≈ 77.6 µM)

## COc1cc(/C=C\c2ccc(B(O)O)cc2)cc(OC)c1OC
B16
  IC50: 2.6 µM
[3]
  IC50: 3.2 µM
Tubulin [4]
  IC50: > 100 µM

## CC(C)C[C@H](NC(=O)[C@H](Cc1ccc(O)cc1)NC(=O)[C@H](Cc1ccccc1)NC(=O)c1cnccn1)B1O[C@@H]2[C@H]3CC[C@H](C3(C)C)[C@]2(C)O1
[5]
  IC50: 0.00539 µM
[6]
  IC50: > 0.02 µM
[7]
  IC50: 0.34 nM

## CC(C)C[C@H](NC(=O)[C@H](Cc1ccc2ccccc2c1)NC(=O)[C@H](CC(C)C)NC(=O)c1cnccn1)B1O[C@@H]2[C@H]3CC[C@H](C3(C)C)[C@]2(C)O1
[5]
  IC50: 0.00391 µM
[6]
  IC50: > 0.02 µM
[7]
  IC50: 0.38 nM

## COc1cc(C(=O)/C=C/c2cc(OC)c(OC)c(OC)c2)ccc1B(O)O
[1]
  EC50: > 15 µM
Tubulin [2]
  IC50: > 40 µM
MCF7
  IC50: > 2.5 µM
